Converted amounts (≈) assume the structure as drawn.
Key:
Artemia salina = experiment: Tested in vitro for the biological efficacy using Artemia salina (brine shrimp) immobilization assay; format: functional
Caenorhabditis elegans = experiment: Tested in vitro for the biological efficacy using Caenorhabditis elegans binding assay; format: functional, organism-based
Tetranychus urticae = experiment: Tested for acaricidal efficacy using a Tetranychus urticae (two-spotted spider mite, TSSM) contact assay; format: functional; parameters: concentration or dose not given beside the values
[1] = system: Trichostrongylus colubriformis; experiment: Tested in vivo for the biological efficacy using Trichostrongylus colubriformis gerbil assay; format: functional

SMILES	IC100 (Artemia salina) [ng/mL]	IC50 (Caenorhabditis elegans) [ng/mL]	Mortality (Tetranychus urticae) [%]	ED85 [1] [mg/kg]
CCC(C)[C@H]1O[C@]2(C=C[C@@H]1C)C[C@@H]1C[C@@H](C/C=C(\C)[C@@H](O[C@H]3C[C@H](OC)[C@@H](O[C@H]4C[C@H](OC)[C@H](SCC(C)O)[C@H](C)O4)[C@H](C)O3)[C@@H](C)/C=C/C=C3\CO[C@@H]4[C@H](O)C(C)=C[C@@H](C(=O)O1)[C@]34O)O2 (some centres undefined)	870	0.216 (≈ 0.228 nM)	89	0.063
CCC(C)[C@H]1O[C@]2(C=C[C@@H]1C)C[C@@H]1C[C@@H](C/C=C(\C)[C@@H](O[C@H]3C[C@H](OC)[C@@H](O[C@H]4C[C@H](OC)[C@H]([S+]([O-])CCO)[C@H](C)O4)[C@H](C)O3)[C@@H](C)/C=C/C=C3\CO[C@@H]4[C@H](O)C(C)=C[C@@H](C(=O)O1)[C@]34O)O2 (some centres undefined)	1300	> 1.27	13	0.125
CCC(C)[C@H]1O[C@]2(C=C[C@@H]1C)C[C@@H]1C[C@@H](C/C=C(\C)[C@@H](O[C@H]3C[C@H](OC)[C@@H](O[C@H]4C[C@H](OC)[C@H](S(=O)(=O)CC)[C@H](C)O4)[C@H](C)O3)[C@@H](C)/C=C/C=C3\CO[C@@H]4[C@H](O)C(C)=C[C@@H](C(=O)O1)[C@]34O)O2 (some centres undefined)	650	0.128 (≈ 0.135 nM)	68	0.031
CCC(C)[C@H]1O[C@]2(C=C[C@@H]1C)C[C@@H]1C[C@@H](C/C=C(\C)[C@@H](O[C@H]3C[C@H](OC)[C@@H](O[C@H]4C[C@H](OC)[C@@H](S(=O)(=O)CC)[C@H](C)O4)[C@H](C)O3)[C@@H](C)/C=C/C=C3\CO[C@@H]4[C@H](O)C(C)=C[C@@H](C(=O)O1)[C@]34O)O2 (some centres undefined)	870	0.123 (≈ 0.13 nM)	64	0.063
CCC(C)[C@H]1O[C@]2(C=C[C@@H]1C)C[C@@H]1C[C@@H](C/C=C(\C)[C@@H](O[C@H]3C[C@H](OC)[C@@H](O[C@H]4C[C@H](OC)[C@@H](SCCNC(C)=O)[C@H](C)O4)[C@H](C)O3)[C@@H](C)/C=C/C=C3\CO[C@@H]4[C@H](O)C(C)=C[C@@H](C(=O)O1)[C@]34O)O2 (some centres undefined)	870	0.165 (≈ 0.169 nM)	63	0.063
CCC(C)[C@H]1O[C@]2(C=C[C@@H]1C)C[C@@H]1C[C@@H](C/C=C(\C)[C@@H](O[C@H]3C[C@H](OC)[C@@H](O[C@H]4C[C@H](OC)[C@@H](SCC(C)O)[C@H](C)O4)[C@H](C)O3)[C@@H](C)/C=C/C=C3\CO[C@@H]4[C@H](O)C(C)=C[C@@H](C(=O)O1)[C@]34O)O2 (some centres undefined)	870	0.153 (≈ 0.162 nM)	88	0.125
CCC(C)[C@H]1O[C@]2(CC[C@@H]1C)C[C@@H]1C[C@@H](C/C=C(\C)[C@@H](O[C@H]3C[C@H](OC)[C@@H](O[C@H]4C[C@H](OC)[C@H]([S+](C)[O-])[C@H](C)O4)[C@H](C)O3)[C@@H](C)/C=C/C=C3\CO[C@@H]4[C@H](O)C(C)=C[C@@H](C(=O)O1)[C@]34O)O2 (some centres undefined)	870	0.108 (≈ 0.117 nM)	77	0.063
CCC(C)[C@H]1O[C@]2(C=C[C@@H]1C)C[C@@H]1C[C@@H](C/C=C(\C)[C@@H](O[C@H]3C[C@H](OC)[C@H](SC)[C@H](C)O3)[C@@H](C)/C=C/C=C3\CO[C@@H]4[C@H](O)C(C)=C[C@@H](C(=O)O1)[C@]34O)O2 (some centres undefined)	6930	0.422 (≈ 0.556 nM)	100	0.125
CCC(C)[C@H]1O[C@]2(CC[C@@H]1C)C[C@@H]1C[C@@H](C/C=C(\C)[C@@H](O[C@H]3C[C@H](OC)[C@@H](O[C@H]4C[C@H](OC)[C@H]([S+]([O-])CCO)[C@H](C)O4)[C@H](C)O3)[C@@H](C)/C=C/C=C3\CO[C@@H]4[C@H](O)C(C)=C[C@@H](C(=O)O1)[C@]34O)O2 (some centres undefined)	870	0.188 (≈ 0.198 nM)	31	0.25
CCC(C)[C@H]1O[C@]2(C=C[C@@H]1C)C[C@@H]1C[C@@H](C/C=C(\C)[C@@H](O[C@H]3C[C@H](OC)[C@@H](O[C@H]4C[C@H](OC)[C@@H]([S+]([O-])CCO)[C@H](C)O4)[C@H](C)O3)[C@@H](C)/C=C/C=C3\CO[C@@H]4[C@H](O)C(C)=C[C@@H](C(=O)O1)[C@]34O)O2 (some centres undefined)	870	0.469 (≈ 0.494 nM)	69	0.063
CCC(C)[C@H]1O[C@]2(C=C[C@@H]1C)C[C@@H]1C[C@@H](C/C=C(\C)[C@@H](O[C@H]3C[C@H](OC)[C@@H](O[C@H]4C[C@H](OC)[C@@H](SCCCO)[C@H](C)O4)[C@H](C)O3)[C@@H](C)/C=C/C=C3\CO[C@@H]4[C@H](O)C(C)=C[C@@H](C(=O)O1)[C@]34O)O2 (some centres undefined)	870	0.153 (≈ 0.162 nM)	53	0.25
CCC(C)[C@H]1O[C@]2(CC[C@@H]1C)C[C@@H]1C[C@@H](C/C=C(\C)[C@@H](O[C@H]3C[C@H](OC)[C@@H](O[C@H]4C[C@H](OC)[C@H](S(C)(=O)=O)[C@H](C)O4)[C@H](C)O3)[C@@H](C)/C=C/C=C3\CO[C@@H]4[C@H](O)C(C)=C[C@@H](C(=O)O1)[C@]34O)O2 (some centres undefined)	870	0.084 (≈ 0.0896 nM)	64	0.125
CCC(C)[C@H]1O[C@]2(C=C[C@@H]1C)C[C@@H]1C[C@@H](C/C=C(\C)[C@@H](O[C@H]3C[C@H](OC)[C@H](SCCO)[C@H](C)O3)[C@@H](C)/C=C/C=C3\CO[C@@H]4[C@H](O)C(C)=C[C@@H](C(=O)O1)[C@]34O)O2 (some centres undefined)	870	–	94	0.063
CCC(C)[C@H]1O[C@]2(C=C[C@@H]1C)C[C@@H]1C[C@@H](C/C=C(\C)[C@@H](O[C@H]3C[C@H](OC)[C@@H](O)[C@H](C)O3)[C@@H](C)/C=C/C=C3\CO[C@@H]4[C@H](O)C(C)=C[C@@H](C(=O)O1)[C@]34O)O2 (some centres undefined) [AVERMECTIN MS]	430	0.81 (≈ 1.11 nM)	93	0.075
CCC(C)[C@H]1O[C@]2(C=C[C@@H]1C)C[C@@H]1C[C@@H](C/C=C(\C)[C@@H](O[C@H]3C[C@H](OC)[C@@H](O[C@H]4C[C@H](OC)[C@@H](S(=O)(=O)CCO)[C@H](C)O4)[C@H](C)O3)[C@@H](C)/C=C/C=C3\CO[C@@H]4[C@H](O)C(C)=C[C@@H](C(=O)O1)[C@]34O)O2 (some centres undefined)	870	0.351 (≈ 0.364 nM)	64	0.063

From ChEMBL document CHEMBL1126980, “New, potent anthelmintic and acaricidal agents: 4-deoxy-4-thio-substituted avermectin derivatives” (Bioorg Med Chem Lett, 1993)
